“Also recorded” adds a separate entry of the source.
Tests used:
[1] = test system: Human macrophage-like THP-1 cells; test: Cholesterol excretion promoting activity of fatty acids, fluorometry, 24 h pre-culture with the substance; format: cell-based; conditions: for cholesterol excretion promoting activity (in words): conclusion from Tables 5A and 8
Procedure: Human macrophage-like THP-1 cells were seeded in a 96-well plate so as to be 2.0×10^5 cells/well, and allowed to differentiate for 72 hours. The medium was then replaced with RPMI 1640 medium containing 0.02% by mass of bovine serum albumin (BSA), 10 to 40 μg/mL (final concentration in the well) of 10-hydroxypalmitic acid (Angene) was added, and the cells were cultured for 24 hours. The medium was then replaced with Dulbecco's Modified Eagle Medium (DMEM) containing 0.02% by mass of BSA and 6 mM of sodium taurocholate, and the medium was recovered after 4 hours. The level of cholesterol excreted from the cells (the cholesterol level in the recovered medium) was measured in the same manner as in Example 1 to evaluate the cholesterol excretion promoting activity of 10-hydroxypalmitic acid (n=3).
In the same manner as in Example 5A, the cholesterol excretion promoting activities of 10-hydroxypalmitic acid and other hydroxypalmitic acids (2-hydroxypalmitic acid (Tokyo Chemical Industry Co., Ltd.), 3-hydroxypalmitic acid (Sigma-Aldrich), 16-hydroxypalmitic acid (Tokyo Chemical Industry Co., Ltd.), and 10-hydroxypalmitic acid), which may be contained in Camembert cheese, as well as palmitic acid to which no hydroxyl group was added (Sigma) were evaluated (n=6 to 11).

[2] = test system: Human macrophage-like THP-1 cells; test: Cholesterol excretion promoting activity of 10-hydroxypalmitic acid by colorimetry; format: cell-based
Procedure: The cholesterol excretion promoting activity of 10-hydroxypalmitic acid was also examined by colorimetry. Specifically, human macrophage-like THP-1 cells were seeded in a 6-well plate so as to be 4.0×10^6 cells/well, and allowed to differentiate for 72 hours. The medium was then replaced with RPMI 1640 medium containing 0.02% by mass of bovine serum albumin (BSA), 20 μg/mL (final concentration in the well) of 10-hydroxypalmitic acid (Angene) was added, and the cells were cultured for 24 hours and then recovered. Lipids were then extracted using methanol and chloroform, and the level of cholesterol excreted from the cells (the cholesterol level in the recovered medium) was measured using a free cholesterol assay kit (Fujifilm Wako Pure Chemical Corporation) to evaluate the cholesterol excretion promoting activity of 10-hydroxypalmitic acid (n =3).

[3] = test system: ABCA1; test: ABCA1 mRNA expression level by real-time PCR in THP-1 cells; format: cell-based, Human; conditions: 20 μg/ml, 24 h; corrected with 18S ribosomal RNA; EtOH = 1; n=3
Procedure: (§1) Since the cholesterol excretion promoting activity of 10-hydroxypalmitic acid was confirmed, the effect of 10-hydroxypalmitic acid on ABC transporters was evaluated. Specifically, human macrophage-like THP-1 cells were seeded in a 24-well plate so as to be 1.0×10^6 cells/well, and allowed to differentiate for 72 hours. The medium was then replaced with RPMI 1640 medium containing 0.02% by mass of bovine serum albumin (BSA), 20 μg/mL (final concentration in the well) of 10-hydroxypalmitic acid was added, the cells were cultured for 24 hours, then mRNA was extracted using RNeasy Minikit (Qiagen), reverse transcription was carried out using ReverTra Ace (Registered trademark) qPCR RT Master Mix with gDNA Remover (Toyobo), and the ABCA1 and ABCG1 mRNA expression levels were measured by real-time PCR using Thermal Cycler Dice TP800 (Takara). 18S ribosomal RNA was used as a control gene. The ABCA1 and ABCG1 mRNA expression levels were each corrected with the mRNA expression level of the control gene, and the ABC transporter expression promoting activity of 10-hydroxypalmitic acid was evaluated (n=3).

[4] = test system: ABCG1; test: ABCG1 mRNA expression level by real-time PCR in THP-1 cells; format: cell-based, Human; conditions: 20 μg/mL, 24 h; corrected with 18S ribosomal RNA; EtOH = 1; n=3
Procedure: as §1

[5] = test system: ABCA1; test: ABCA1 protein expression level by Western blotting in THP-1 cells; format: cell-based, Human; conditions: 20 μg/mL, 24 h; corrected with actin; DMSO = 1; n=3
Procedure: (§2) The ABCA1 and ABCG1 protein expression levels were evaluated. Specifically, cells cultured in the same manner as in Example 6 were recovered, SDS-PAGE and blotting were carried out using the 10% minigel shown in Table 7A and, after blocking, the protein expression levels were measured by Western blotting using a primary antibody (anti-mouse monoclonal ABCA1 (KM3110) or anti-rabbit polyclonal ABCG1 (H65) (Novus)) and anti-actin (Sigma) as a loading control (n=3). The protein expression levels were quantified with CS Analyzer 4 […]. The ABCA1 and ABCG1 protein expression levels were each corrected with the actin protein expression level.

[6] = test system: ABCG1; test: ABCG1 protein expression level by Western blotting in THP-1 cells; format: cell-based, Human; conditions: 20 μg/mL, 24 h; corrected with actin; DMSO = 1; n=3
Procedure: as §2

[7] = test system: IL-1; test: IL-1 mRNA expression level by real-time PCR in THP-1 cells with or without inflammation induction; format: cell-based, Human; conditions: 24 h, DMSO-control = 1
Procedure: (§3) Human macrophage-like THP-1 cells were seeded in a 24-well plate so as to be 1.0×10^6 cells/well, and allowed to differentiate for 72 hours. The medium was then replaced with RPMI 1640 medium containing: 0.02% by mass of bovine serum albumin (BSA); either dimethyl sulfoxide (DMSO) or 20 μg/mL of 10-hydroxypalmitic acid; and either 50 μg/mL of oxidized LDL (oxLDL) (Invitrogen), 50 μg/mL of acetylated LDL (acLDL) (Invitrogen), 5 μM of T0901317+5 μM of 9-cis-retinoic acid (T0+RA), or 1 μg/mL of lipopolysaccharide (LPS) (Sigma), or replaced with RPMI 1640 medium (control) containing: 0.02% by mass of bovine serum albumin (BSA); and either DMSO or 20 μg/mL 10-hydroxypalmitic acid, but not containing any of oxLDL, acLDL, T0+RA, and LPS, and the macrophage-like cells were cultured for 24 hours to induce inflammation. The medium was then replaced with Dulbecco's Modified Eagle Medium (DMEM) containing 0.02% by mass of BSA and 6 mM of sodium taurocholate, and the cells were cultured for 4 hours. The cells were then recovered, and the mRNA expression levels of IL-1 and IL-6, which are inflammatory markers (inflammatory cytokines), were measured by real-time PCR in the same manner as in Example 6 (n=4 to 6).

[8] = test system: IL-6; test: IL-6 mRNA expression level by real-time PCR in THP-1 cells with or without inflammation induction; format: cell-based, Human; conditions: 24 h, DMSO-control = 1
Procedure: as §3

[9] = test system: Human macrophage-like THP-1 cells; test: Cholesterol excretion promoting activity in an inflammation-induced state, fluorometry (Amplex Red); format: cell-based; conditions: for Cholesterol excretion level (Average # standard deviation): DMSO-control = 1, n=4
Procedure: Human macrophage-like THP-1 cells were seeded in a 24-well plate so as to be 1.0×10^6 cells/well, and allowed to differentiate for 72 hours. The medium was then replaced with RPMI 1640 medium containing: 0.02% by mass of bovine serum albumin (BSA); either dimethyl sulfoxide (DMSO) or 20 μg/mL of 10-hydroxypalmitic acid; and either 50 μg/mL of oxidized LDL (oxLDL) (Invitrogen), 50 μg/mL of acetylated LDL (acLDL) (Invitrogen), 5 μM of T0901317+5 μM of 9-cis-retinoic acid (T0+RA), or 1 μg/mL of LPS (Sigma), or replaced with RPMI 1640 medium (control) containing: 0.02% by mass of BSA; and either DMSO or 20 μg/mL 10-hydroxypalmitic acid, but not containing any of oxLDL, acLDL, T0+RA, and LPS, and the macrophage-like cells were cultured for 24 hours to induce inflammation. The medium was then replaced with Dulbecco's Modified Eagle Medium (DMEM) containing 0.02% by mass of BSA and 6 mM of sodium taurocholate, and the cells were cultured for 4 hours. The medium was then recovered, and the level of cholesterol excreted from the cells (the cholesterol level in the recovered medium) was measured by fluorometry using Amplex Red to evaluate the cholesterol excretion promoting activity of 10-hydroxypalmitic acid in an inflammation-induced state (n=4).

[10] = same manner as Example 5A, concentration not given, EtOH = 1, n=6 to 11
[11] = 20 μg/mL with T0 + RA (5 μM each)
[12] = 20 μg/mL, Control (no inducer), n=4 to 6

CCCCCCCCCCCCCCCC(=O)O [Palmitic acid, palmitic acid, reference compound]
Cholesterol excretion level (Average ± standard deviation) [1, 10]: 0.823 ± 0.268 relative value

O=C(O)CCCCCCCCCCCCCCCO [16-hydroxypalmitic acid]
cholesterol excretion promoting activity (in words) [1]: had a cholesterol excretion promoting activity
Cholesterol excretion level (Average ± standard deviation) [1, 10]: 1.406 ± 0.982 relative value

CCCCCCCCCCCCCCC(O)C(=O)O (stereo not drawn) [2-Hydroxypalmitic acid, 2-hydroxypalmitic acid, reference compound]
Cholesterol excretion level (Average ± standard deviation) [1, 10]: 0.970 ± 0.175 relative value

CCCCCCCCCCCCCC(O)CC(=O)O (stereo not drawn) [3-Hydroxypalmitic acid, 3-hydroxypalmitic acid, reference compound]
Cholesterol excretion level (Average ± standard deviation) [1, 10]: 1.094 ± 0.271 relative value

CCCCCCC(O)CCCCCCCCC(=O)O (stereo not drawn) [10-hydroxypalmitic acid]
Cholesterol excretion level (Average ± standard deviation) ([1]; 10 μg/mL, 24 h, DMSO = 1, n=3): 1.553 ± 0.102 relative value
Cholesterol excretion level (Average ± standard deviation) ([1]; 20 μg/mL, 24 h, DMSO = 1, n=3): 1.685 ± 0.138 relative value
Cholesterol excretion level (Average ± standard deviation) ([1]; 30 μg/mL, 24 h, DMSO = 1, n=3): 2.313 ± 0.479 relative value
Cholesterol excretion level (Average ± standard deviation) ([1]; 40 μg/mL, 24 h, DMSO = 1, n=3): 1.872 ± 0.374 relative value
cholesterol excretion promoting activity (in words) [1]: concentration-dependent cholesterol excretion promoting activity; also recorded: had a cholesterol excretion promoting activity
Cholesterol excretion level (Average ± standard deviation) [1, 10]: 1.331 ± 0.500 relative value
Cholesterol excretion level (Average ± standard deviation) ([2]; 20 μg/mL, 24 h, DMSO = 1, n=3): 1.569 ± 0.317 relative value
cholesterol excretion promoting activity (in words) ([2]; conclusion from Table 5B): confirmed
ABCA1 mRNA expression level (Average ± standard deviation) [3]: 2.870 ± 0.267 relative value
ABCG1 mRNA expression level (Average ± standard deviation) [4]: 2.953 ± 0.195 relative value
ABCA1 protein expression level (Average ± standard deviation) [5]: 2.607 ± 0.559 relative value
ABCG1 protein expression level (Average ± standard deviation) [6]: 2.541 ± 0.815 relative value
IL-1 mRNA expression level (Average ± standard deviation) ([7]; 20 μg/mL with 1 μg/mL LPS): 0.450 ± 0.390 relative value
IL-1 mRNA expression level (Average ± standard deviation) ([7]; 20 μg/mL with 50 μg/mL acLDL): 0.389 ± 0.067 relative value
IL-1 mRNA expression level (Average ± standard deviation) ([7]; 20 μg/mL with 50 μg/mL oxLDL): 0.419 ± 0.184 relative value
IL-1 mRNA expression level (Average ± standard deviation) [7, 11]: 0.185 ± 0.059 relative value
IL-1 mRNA expression level (Average ± standard deviation) [7, 12]: 0.200 ± 0.046 relative value
IL-6 mRNA expression level (Average ± standard deviation) ([8]; 20 μg/mL with 1 μg/mL LPS): 0.530 ± 0.107 relative value
IL-6 mRNA expression level (Average ± standard deviation) ([8]; 20 μg/mL with 50 μg/mL acLDL): 0.363 ± 0.149 relative value
IL-6 mRNA expression level (Average ± standard deviation) ([8]; 20 μg/mL with 50 μg/mL oxLDL): 0.167 ± 0.029 relative value
IL-6 mRNA expression level (Average ± standard deviation) [8, 11]: 0.095 ± 0.050 relative value
IL-6 mRNA expression level (Average ± standard deviation) [8, 12]: 0.104 ± 0.032 relative value
Cholesterol excretion level (Average # standard deviation) ([9]; 20 μg/mL with 1 μg/mL LPS): 9.320 ± 3.477 relative value
Cholesterol excretion level (Average # standard deviation) ([9]; 20 μg/mL with 50 μg/mL acLDL): 1.821 ± 0.426 relative value
Cholesterol excretion level (Average # standard deviation) ([9]; 20 μg/mL with 50 μg/mL oxLDL): 2.389 ± 0.628 relative value
Cholesterol excretion level (Average # standard deviation) [9, 11]: 33.159 ± 10.920 relative value
Cholesterol excretion level (Average # standard deviation) ([9]; 20 μg/mL, Control (no inducer)): 3.588 ± 1.302 relative value
cholesterol excretion promoting activity (in words) ([9]; inflammation-induced state or ABC transporters induced by T0+RA, conclusion from Table 10): had a cholesterol excretion promoting activity
